Assay results as given in patent US10213438B2, “Alkaloid compounds for treating depression, substance addictions, and indications associated with chronic inflammation” (MyMD Pharmaceuticals, Inc., priority 2014, dated 2019).

How the values were obtained:
COX-2 = experiment: LPS-stimulated RAW cells, protein blot for COX-2 expression; assay type: cell-based, mouse; settings: LPS stimulation, compound added after 15 minutes, harvest 24 hours later, FIG. 2
Method: (§1) This example illustrates in vitro studies of 2-(pyridin-3-yl)-2,3,4,7-tetrahydro-1H-azepine. For these experiments, the mouse macrophage cell line RAW 264.7 was used (referred to herein as RAW). The design of the experiments is the following:
(§2) RAW cells were plated in complete medium overnight. The following day, a known inflammatory stimulus (bacterial LPS) was added to the culture wells. Following a 15 minute stimulation, 2-(pyridin-3-yl)-2,3,4,7-tetrahydro-1H-azepine (7-MR) was added to the culture at different concentrations. Twenty-four hours later, RAW cells were harvested and their proteins extracted. Proteins were then run on a polyacrylamide gels and transferred to a nitrocellulose membrane. The membrane was finally probed with commercial antibodies against some classic inflammatory markers.
(§3) The following three inflammatory markers were tested:
COX-2 (antibody made by Cayman Chemical, catalog number 160106)

RAW macrophage cells = experiment: assay of cell viability in RAW macrophage cells; assay type: cell-based, mouse; settings: RAW 264.7 cells, FIG. 1
Method: as §1
Before testing the anti-inflammatory effect(s) of 2-(pyridin-3-yl)-2,3,4,7-tetrahydro-1H-azepine, an assay of cell viability was performed. […] Toxicity was only seen at higher doses (3 mM and above).

MAO-A [1] = target: T1, MAO-A (Homo sapiens, UniProt P21397); experiment: MAO-Glo luminescent assay, MAO-A; assay type: biochemical; settings: 1 hour at room temperature, FIG. 5
T1 sequence (P21397 1-527): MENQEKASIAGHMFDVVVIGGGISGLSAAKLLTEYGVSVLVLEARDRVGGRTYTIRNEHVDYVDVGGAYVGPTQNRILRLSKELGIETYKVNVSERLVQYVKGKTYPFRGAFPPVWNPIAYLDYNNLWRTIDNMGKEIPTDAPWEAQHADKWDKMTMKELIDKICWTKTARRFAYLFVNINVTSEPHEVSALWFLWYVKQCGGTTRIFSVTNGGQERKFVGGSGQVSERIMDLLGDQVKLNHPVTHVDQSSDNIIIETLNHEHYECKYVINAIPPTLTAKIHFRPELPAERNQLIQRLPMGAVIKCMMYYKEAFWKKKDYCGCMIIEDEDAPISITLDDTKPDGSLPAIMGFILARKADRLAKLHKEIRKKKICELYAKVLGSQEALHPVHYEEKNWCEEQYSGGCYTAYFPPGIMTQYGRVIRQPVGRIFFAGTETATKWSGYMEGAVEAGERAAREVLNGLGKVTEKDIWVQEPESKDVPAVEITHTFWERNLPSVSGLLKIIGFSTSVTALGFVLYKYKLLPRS
Source text: This example describes experiments for determining monoamine oxidase (MAO) inhibition for 2-(pyridin-3-yl)-2,3,4,7-tetrahydro-1H-azepine and other alkaloids. MAOs are enzymes located on the outer membrane of mitochondria and are involved in the catabolism of monoamine neurotransmitters. There are two well-characterized isoenzymes: MAO-A, which predominantly catabolizes serotonin and norepinephrine, and MAO-B, which preferentially catabolizes benzylamine and phenylethylamine. Dopamine and tyramine are metabolized by both isoforms.
To detect the activity of MAO, a luminescent method (MAO-Glo Assay kit, from Promega, Cat # V1401) was used. In this method, a MAO substrate (a derivative of beetle luciferin provided in the kit) is mixed with the compound to be tested (in this case, myosmine and control compounds). Then, the MAO enzymes (either A or B, purchased separately) are added to the mixture and incubated with the reaction for 1 hour at room temperature. The MAO enzymes, if not inhibited by the test compound, will convert the substrate into methyl ester luciferin. Finally, a luciferin detection reagent (provided by the kit) is added (20 minutes at room temperature) to stop the MAO reaction and convert methyl ester luciferin into D-luciferin. […] The luminescent signal is measured and recorded using a luminometer. […]

iNOS = experiment: LPS-stimulated RAW cells, protein blot for iNOS expression; assay type: cell-based, mouse
Method: as §1, §2, §3
iNOS (SantaCruz Biotechnology, sc-650)

mice = settings: cited from earlier work; for effect on dopamine levels: MPTP
MAO-A [2] = target: T1, MAO-A; settings: cited from earlier work
MAO-B = target: T2, MAO-B (Homo sapiens, UniProt P27338); settings: cited from earlier work
T2 sequence (P27338 1-520): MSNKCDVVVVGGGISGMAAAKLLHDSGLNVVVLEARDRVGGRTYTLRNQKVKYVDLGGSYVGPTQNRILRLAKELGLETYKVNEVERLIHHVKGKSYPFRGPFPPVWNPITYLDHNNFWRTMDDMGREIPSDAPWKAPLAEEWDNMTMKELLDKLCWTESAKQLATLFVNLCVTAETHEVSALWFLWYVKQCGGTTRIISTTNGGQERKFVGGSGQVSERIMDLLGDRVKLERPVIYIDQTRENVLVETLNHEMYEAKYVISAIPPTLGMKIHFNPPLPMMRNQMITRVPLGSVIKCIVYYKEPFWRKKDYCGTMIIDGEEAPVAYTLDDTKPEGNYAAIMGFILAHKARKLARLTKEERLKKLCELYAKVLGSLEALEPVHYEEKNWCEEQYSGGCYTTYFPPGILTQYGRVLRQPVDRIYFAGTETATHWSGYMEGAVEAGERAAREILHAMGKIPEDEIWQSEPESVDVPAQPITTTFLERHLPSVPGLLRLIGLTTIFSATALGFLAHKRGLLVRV

C1=CCNC(c2cccnc2)CC1 (stereo not shown) [2-(pyridin-3-yl)-2,3,4,7-tetrahydro-1H-azepine]
expression of COX2 (COX-2): slightly
concentration not toxic to RAW macrophage cells (cell viability) (RAW macrophage cells): up to 2 mM
concentration at which toxicity was seen (cell viability) (RAW macrophage cells; higher doses): ≥ 3000 µM
inhibition of MAO-A (activity curve) (MAO-A [1]): found to inhibit MAO-A
expression of iNOS (iNOS; LPS stimulation, compound added after 15 minutes, harvest 24 hours later, FIGS. 2 and 3): decreased significantly
suppression of iNOS expression, separate experiments (iNOS; confirmation in separate experiments, FIG. 4): specifically suppressed iNOS

c1ccc(-c2ccncc2)cc1 [4-phenylpyridine]
effect on dopamine levels (mice): no significant effect
decrease in dopamine metabolite levels induced by MPTP (mice): prevented the decrease

c1cncc([C@@H]2CCCCN2)c1 [anabasine]
MAO inhibitory effects against MAO-A (MAO-A [2]): exhibited MAO inhibitory effects
MAO inhibitory effects against MAO-B (MAO-B): exhibited MAO inhibitory effects

C1=CCC(c2cccnc2)NC1 (stereo not shown) [anatabine]
MAO inhibitory effects against MAO-A (MAO-A [2]): exhibited MAO inhibitory effects
MAO inhibitory effects against MAO-B (MAO-B): exhibited MAO inhibitory effects

CN1CCCC1c1cccnc1 (stereo not shown) [nicotine]
effect on dopamine levels (mice): no significant effect
decrease in dopamine metabolite levels induced by MPTP (mice): prevented the decrease

c1cncc([C@@H]2CCCN2)c1 [nornicotine]
MAO inhibitory effects against MAO-A (MAO-A [2]): exhibited MAO inhibitory effects
MAO inhibitory effects against MAO-B (MAO-B): exhibited MAO inhibitory effects
